Consider two substances from US6743630B2, “Method of preparing a protein array based on biochemical protein-protein interaction” (The Trustees of Columbia University in the City of New York, priority 2002, dated 2004).

The assay relates to Fas/FAP-1 binding. The assay is described as follows: In vitro inhibition assay of Fas/FAP-1 binding (GST-Fas, 35S-labeled FAP-1). The following applies: 15-mer peptide 1-1000 μM; human PAMP 1 mM; peptides acetylated. The protocol: 3A. Inhibition assay of Fas/FAP-1 binding using the C-terminal 15 amino acids of Fas. GST-Fas fusion protein (191-355) was used for in vitro binding assay (lane 1, 3-10). GST-Fas fusion protein (191-320) (lane 2) and 1 mM human PAMP (N-terminal 20 amino acids of proadrenomedullin, M. W. 2460.9) (lane 3) were used as negative controls. The concentrations of the C-terminal 15 amino acids added were 1 (lane 4), 3 (lane 5), 10 (lane 6), 30 (lane 7), 100 (lane 8), 300 (lane 9), and 1000 μM (lane 10).
Chain of Fas/FAP-1 binding (Q12923 1361-1456 limits assumed): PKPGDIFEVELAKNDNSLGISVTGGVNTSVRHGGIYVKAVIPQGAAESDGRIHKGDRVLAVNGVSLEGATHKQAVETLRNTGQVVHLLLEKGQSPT
HFAP-10 cDNA (Sato, et al. 1995) subcloned into the Bluescript vector pSK-II (Stratagene) was in vitro-translated from an internal methionine codon in the presence of ^35S-L-methionine using a coupled in vitro transcription/translation system (Promega, TNT lysate) and T7 RNA polymerase. […] After washing vigorously 4 times in the same buffer, associated proteins were recovered with the glutathione-Sepharose beads by centrifugation, eluted into boiling Laemmli buffer, and analyzed by SDS-PAGE and fluorography.
In vitro-translated [^35S ]HFAP-1 was purified with a NAP-5 column (Pharmacia) and incubated with 3 μM of GST-fusion proteins for 16 hours at 4° C. After washing 4 times in the binding buffer, radioactivity incorporation was determined in a β counter. […]

No end group written: not given here.

Consider “human PAMP peptide: N-terminal 20 amino acids of proadrenomedullin, negative control (ARLDVASEFRKKWNKWALSR; ends and bridges not checked; UniProt P35318 22-41, looked up)”, for which the “inhibitory effect on binding of in vitro-translated FAP-1 to GST-Fas” value is reported as “no effect”. “synthetic 15 amino acids of Fas: synthetic peptide of the C-terminal 15 amino acids of Fas (Ac-DSENSNFRNEIQSLV)”: the “inhibitory effect on binding of in vitro-translated FAP-1 to GST-Fas” value was “dramatically reduced and dependent on the concentration”.
